Data on three compounds can be found in PMC6982022 (International Journal of Molecular Sciences, 2019).

One data set has as its system rodent model of diabetes. The arrangement: method as in PMID 20000679. The conditions noted are these: ref 36; cited from earlier work.
For data set [1], the system named is C57BL6J mice. Kind of data set: Epididymal sperm acrosome morphology (FITC-PSA staining) after 35 days oral dosing. The format is in vivo, mouse. Conditions: 15, 25 and 50 mg/kg oral daily. The method, then: (§1) Groups of six mice, each, were used for three different doses of NB-DNJ or NB-DGJ formulated in milliQ water at 50 mg/kg, 25 mg/kg and 15 mg/kg, respectively. Control groups were given an equivalent volume of water. Animals were given compound or control once daily for 35 consecutive days via oral gavage using animal feeding needles (Biomedical Needles, Popper, NY, USA). Body weight was noted every week for all treatment groups. Mice were euthanized at the end of a 35 days dosing regimen using CO2 asphyxia followed by cervical dislocation. Testes were harvested, weighed and stored in Bouin’s fixative for 48 h, then sliced into two halves, and stored in fresh Bouin’s for another 24 h. The tissue slices were then rinsed in 70% ethanol and processed and stained for histology using a standard protocol for Hematoxylin and eosin staining. Spermatids with elongated and abnormally shaped heads were counted per 20 fields and average number calculated for 6 mice/group.
For sperm retrieval, epididymis was removed from the animal and placed in Petri dish. One mL of capacitation buffer (Capacitation buffer consisted of 110 mM NaCl, 2.68 mM KCl, 0.36 mM NaH2PO4, 25 mM NaHCO3, 0.49 mM MgCl2, 2.40 mM CaCl2, 25 mM HEPES, 5.50 mM Glucose, 1 mM Pyruvic acid, pH 7.4; Tash and Bracho, 1998) at room temperature was added to the dish. Using forceps, the caput of the epididymis was held in place and the cauda sliced repeatedly with a razor blade. The spermatozoa were allowed to disperse for 15 min with gentle swirling intermittently. A 100 µL aliquot of the sperm suspension was dropped onto a standard glass microscope slide (Fisherbrand superfrost microscope slides 25 × 75 × 1.0 mm)) and smeared with side of pipette tip. The slides were air dried flat for 1 h at room temperature. The sperm smear was fixed in methanol for 2 min. The sperm smear was than stained using FITC-PSA (Fluorescein isothiocyanate Pisum Sativum Agglutinin; Vector Laboratories, Burlingame, CA) was diluted 1:7000 in PBS containing 1:10,000 DAPI dihydrochloride, FluoroPure™ grade, Invitrogen) (≥98% pure) to make the stock solution. To each slide, 100 µL of FITC-PSA was added and spread out with edge of pipette tip to cover the dried sperm smear. The slides were incubated at 37 °C for 10 min, and then washed with 5 changes of PBS for 5 min each. The slides were air-dried and mounted with 20 µL Vectashield mounting medium for fluorescence (Vector Laboratories, Burlingame, CA, USA) and observed. Slides were viewed on a Nikon IX-81 microscope under a 40× objective using FITC and DAPI filter to visualize acrosome morphology. The phase contrast images were also collected at the same magnification to compare morphological details.

Data set [2] has as its system C57BL6J mice. Kind of data set: Testis histology (H&E) after 35 days oral dosing. The format is in vivo, mouse. Conditions: 15, 25 or 50 mg/kg, oral daily. The method, then:
as §1

In another data set the test system is male CD rats. Kind of data set: Rat mating trial (fertility). The data set is classed as in vivo. Conditions: 15 mg/kg/day oral, 35 days; data not presented. The method, then:
Eighteen adult male CD rats were divided into three groups of six rats each. One group of six CD rats was treated with vehicle (distilled water containing 0.9% benzyl alcohol) via oral gavage (5 mL/kg/day), and the second group (6 rats) was treated with NB-DGJ (in distilled water containing 0.9% benzyl alcohol) via oral gavage at 150 mg/kg/day (in approximately 5 mL/kg of water) daily for 35 consecutive days. The third group (6 rats) was treated with 15 mg/kg NB-DNJ in distilled water containing 0.9% benzyl alcohol) via oral gavage (in approximately 5 mL/kg of water) daily for 35 consecutive days (Figure S5).
Rats were weighed on day 0 (first day of dosing) and weekly thereafter. Dosages were adjusted based on the most recent body weight. Males were cohabited with untreated females (one male per two females) weekly at weeks 1 through 9 [38, 39]. Females were necropsied seven days after separation from males to determine the numbers of implantation sites. Individual male rats were bled from the tail vein at weeks 0, 1, 4, and 7 and serum was harvested by centrifugation. At week 11, the male rats were weighed, anesthetized, and exsanguinated. Sera were analyzed for inhibin B by ELISA (enzyme-linked immunosorbent assay), and rat follicle stimulating hormone (rFSH) and testosterone by radioimmunoassay. Testes, epididymides, ventral prostates, and seminal vesicles were excised and weighed. The left testis was homogenized, and spermatid head counts obtained.
Statistical analysis using the Student’s t-test was performed on body weights, paired testes weights, ventral prostrate weights, seminal vesicle weights, paired epididymal weights, spermatid head counts, percent motile and normal epididymal sperm. We used analysis of variance (ANOVA) for serum inhibin B, rFSH, and testosterone, since these measurements were repeated throughout the study period. The effect of NB-DNJ at 15 mg/kg/day dose in the rat model was studied following the same protocol as that for NB-DGJ.

On the set-up of data set [3]: method as in PMID 17624027. The conditions noted are these: male and female CD rats, oral [3H]-NB-DNJ 160 mg/kg, cited from earlier work.
For the next data set, the system named is C57BL/6 mice. Conditions: cited from earlier work.
A further data set relates to human subjects. The arrangement: method as in PMID 17067996, PMID 10801168, PMID 7905523. The conditions noted are these: ref 25, 26, 27; cited from earlier work.
The next data set concerns GBA2. Conditions: ref 15; cited from earlier work.
Setting [4] is: C57BL/6 mice, daily oral 15 mg/kg.

Broadly, the Cmax is the peak of the concentration-time curve. Broadly, the t½ is how long it takes for the measured level to halve. A word on the IC50: it is the concentration needed to halve the response being measured.

SMILES strings stand for the structures. Like-named read-outs stand apart in the source and are kept apart here.

As for `OC[C@@H]1[C@@H](O)[C@H](O)[C@@H](O)CN1CCCCCOCC12CC3CC(CC(C3)C1)C2`, in the data set with rodent model of diabetes, the “Control of hyperglycemia (in words)” value is on record as “potently control hyperglycemia”.

In the case of `CCCCN1C[C@H](O)[C@@H](O)[C@H](O)[C@H]1CO` [NB-DNJ, N-butyldeoxynojirimycin], in the data set on C57BL6J mice [1], the “Sperm acrosome morphology (in words)” value was “abnormal acrosome in all spermatozoa”. Moreover, the “Testis histology, spermatid heads (in words)” value with C57BL6J mice [2] is reported as “rounded, abnormally shaped spermatid heads”. Further, in the data set with male CD rats, the “Effect on fertility in mating trial (in words)” value is “did not show effect on fertility by week 6”. Moreover, in data set [3], the highest concentration (Cmax) was 13,800 ng/mL, the tmax is recorded as 0.5 h and the t½ is reported as 4.5 h. For the same compound, the Cmax in data set [3] (read-out: Cmax in molar units) was about 63 µM. Moreover, in the data set with C57BL/6 mice (C57BL/6 mice, 15 mg/kg), the “Time to return of fertility after cessation” value was “three weeks”. Further, in the data set with C57BL/6 mice (setting [4]), the “Effect on fertility (in words)” value was “Reversible inhibition of fertility” and the “Time of daily dosing until inhibition of fertility was observed” value is recorded as “three weeks”. Also, the “Strain/species specificity of male contraceptive activity (in words)” value in the data set on C57BL/6 mice (ref 24) is “only effective as a male contraceptive in C57BL/6 and C57BL/6-related mice”. In the data set with human subjects, the “Effect in human subjects (sperm counts, semen parameters)” value is listed as “no effect”.

Take `OC[C@@H]1[C@H](O)[C@H](O)[C@@H](O)CN1CCCCCOCC12CC3CC(CC(C3)C1)C2`: in the data set with GBA2, the 50% inhibitory concentration (IC50) was […].
